Activity calls are given as the source filed them. The rule behind the calls is not given here.
System: rodent lifetime carcinogenesis bioassay, tumor incidence TD50
Assay: chronic cancer bioassays in animals – CPDB, compiled studies (AID 1745844)

O=C(Nc1nc(-c2ccc([N+](=O)[O-])o2)cs1)C(F)(F)F
TD50 (mouse, strain Swiss, females, in feed, site: any site (literature study), lesion: several types, types named in the paper, dosed 46 weeks, study length 55 weeks): 8.01 mg/kg/day | TD50 (mouse, strain Swiss, females, in feed, site: forestomach, lesion: several types, types named in the paper, dosed 46 weeks, study length 55 weeks): 9.98 mg/kg/day | TD50 (mouse, strain Swiss, females, in feed, site: forestomach, lesion: squamous-cell carcinoma, dosed 46 weeks, study length 55 weeks): 38.6 mg/kg/day | TD50 (mouse, strain Swiss, females, in feed, site: forestomach, lesion: squamous-cell papilloma, dosed 46 weeks, study length 55 weeks): 43.5 mg/kg/day | TD50 (rat, strain Sprague-Dawley, females, in feed, site: any site (literature study), lesion: several types, types named in the paper, dosed 46 weeks, study length 66 weeks): 5.58 mg/kg/day | TD50 (rat, strain Sprague-Dawley, females, in feed, site: mammary gland, lesion: adenocarcinoma, dosed 46 weeks, study length 66 weeks): 7.27 mg/kg/day | TD50 (rat, strain Sprague-Dawley, females, in feed, site: mammary gland, lesion: several types, types named in the paper, dosed 46 weeks, study length 66 weeks): 6.79 mg/kg/day

COc1ccc([C@@H]2CC(=O)c3c(O)cc(O[C@@H]4O[C@H](CO[C@@H]5O[C@@H](C)[C@H](O)[C@@H](O)[C@H]5O)[C@@H](O)[C@H](O)[C@H]4O)cc3O2)cc1OC
carcinogen call (mouse, strain B6C3F1, females, in feed, site: liver, lesion: hemangioma, dosed 96 weeks, study length 104 weeks): negative (inactive) | TD50 (mouse, strain B6C3F1, females, in feed, site: liver, lesion: hemangiosarcoma, dosed 96 weeks, study length 104 weeks): 887000 mg/kg/day (inactive) | TD50 (mouse, strain B6C3F1, females, in feed, site: liver, lesion: hepatocellular carcinoma, dosed 96 weeks, study length 104 weeks): 194000 mg/kg/day (inactive) | TD50 (mouse, strain B6C3F1, females, in feed, site: liver, lesion: hyperplastic nodule, dosed 96 weeks, study length 104 weeks): 379000 mg/kg/day (inactive) | carcinogen call (mouse, strain B6C3F1, females, in feed, site: lung, lesion: adenoma, dosed 96 weeks, study length 104 weeks): negative (inactive) | carcinogen call (mouse, strain B6C3F1, males, in feed, site: liver, lesion: hemangioma, dosed 96 weeks, study length 104 weeks): negative (inactive) | TD50 (mouse, strain B6C3F1, males, in feed, site: liver, lesion: hepatocellular carcinoma, dosed 96 weeks, study length 104 weeks): 146000 mg/kg/day (inactive) | TD50 (mouse, strain B6C3F1, males, in feed, site: liver, lesion: hyperplastic nodule, dosed 96 weeks, study length 104 weeks): 416000 mg/kg/day (inactive) | carcinogen call (mouse, strain B6C3F1, males, in feed, site: lung, lesion: adenocarcinoma, dosed 96 weeks, study length 104 weeks): negative (inactive) | carcinogen call (mouse, strain B6C3F1, males, in feed, site: lung, lesion: adenoma, dosed 96 weeks, study length 104 weeks): negative (inactive)

Cc1c(-c2cnccn2)ssc1=S
carcinogen call (rat, strain Charles River CD (Sprague-Dawley), females, by gavage, site: liver, lesion: one or several types, types not named, dosed 52 weeks, study length 52 weeks): negative (inactive) | carcinogen call (rat, strain Charles River CD (Sprague-Dawley), males, by gavage, site: liver, lesion: one or several types, types not named, dosed 52 weeks, study length 52 weeks): negative (inactive)

O=[N+]([O-])c1ccc(O)c([N+](=O)[O-])c1
carcinogen call (mouse, strain DBA, females, in feed, site: mammary gland, lesion: carcinoma, dosed 90 weeks, study length 90 weeks): negative (inactive)

CC(=O)NNC(=O)c1ccncc1
TD50 (mouse, strain Swiss albino, females, in drinking water, site: liver, lesion: several types, types named in the paper, dosed 94 weeks, study length 94 weeks): 55700 mg/kg/day | TD50 (mouse, strain Swiss albino, females, in drinking water, site: lung, lesion: several types, types named in the paper, dosed 94 weeks, study length 94 weeks): 319 mg/kg/day | carcinogen call (mouse, strain Swiss albino, males, in drinking water, site: liver, lesion: hemangioma, dosed 92 weeks, study length 92 weeks): negative (inactive) | TD50 (mouse, strain Swiss albino, males, in drinking water, site: lung, lesion: several types, types named in the paper, dosed 92 weeks, study length 92 weeks): 342 mg/kg/day

Cn1cnc([N+](=O)[O-])c1Sc1ncnc2nc[nH]c12
TD50 (monkey, strain Rhesus [Macaca mulatta], both sexes, in feed, site: any site (literature study), lesion: benign tumor, dosed 774 weeks, study length 851 weeks): 4.89 mg/kg/day | TD50 (monkey, strain Rhesus [Macaca mulatta], both sexes, in feed, site: any site (literature study), lesion: several types, types named in the paper, dosed 774 weeks, study length 851 weeks): 3.68 mg/kg/day | TD50 (monkey, strain Rhesus [Macaca mulatta], both sexes, in feed, site: leptomeninges, lesion: lymphocytic lymphoma, dosed 774 weeks, study length 851 weeks): 6.79 mg/kg/day | TD50 (monkey, strain Rhesus [Macaca mulatta], both sexes, in feed, site: salivary gland, lesion: adenoma, dosed 774 weeks, study length 851 weeks): 2.18 mg/kg/day | TD50 (monkey, strain Rhesus [Macaca mulatta], both sexes, in feed, site: uterus, lesion: leiomyoma, dosed 774 weeks, study length 851 weeks): 2.74 mg/kg/day | TD50 (mouse, strain B6C3F1, females, in feed, site: all sites, lesion: systemic and localized lymphoma, dosed 94 weeks, study length 94 weeks): 7.59 mg/kg/day | TD50 (mouse, strain B6C3F1, females, in feed, site: all sites, lesion: systemic and localized lymphoma, dosed 100 weeks, study length 100 weeks): 43.8 mg/kg/day | TD50 (mouse, strain B6C3F1, females, in feed, site: liver, lesion: hepatocellular adenoma, dosed 100 weeks, study length 100 weeks): 67.5 mg/kg/day | TD50 (mouse, strain B6C3F1, females, in feed, site: lung, lesion: one or several types, types not named, dosed 94 weeks, study length 94 weeks): 4.89 mg/kg/day | TD50 (mouse, strain B6C3F1, females, in feed, site: uterus, lesion: hemangioendothelioma, dosed 100 weeks, study length 100 weeks): 8.92 mg/kg/day | TD50 (mouse, strain B6C3F1, males, in feed, site: all sites, lesion: systemic and localized lymphoma, dosed 100 weeks, study length 100 weeks): 9.66 mg/kg/day | TD50 (mouse, strain B6C3F1, males, in feed, site: liver, lesion: hepatocellular carcinoma, dosed 100 weeks, study length 100 weeks): 55.9 mg/kg/day | TD50 (mouse, strain B6C3F1, males, in feed, site: lung, lesion: carcinoma, dosed 100 weeks, study length 100 weeks): 55.9 mg/kg/day | TD50 (rat, strain Fischer 344, females, in feed, site: ear duct, lesion: squamous-cell carcinoma, dosed 52 weeks, study length 52 weeks): 10.1 mg/kg/day | carcinogen call (rat, strain Fischer 344, females, in feed, site: liver, lesion: one or several types, types not named, dosed 52 weeks, study length 52 weeks): negative (inactive)

Source: PubChem BioAssay AID1745844 (Carcinogenic Potency Database (CPDB), 2022)
